Data as given in paper PMC10706763, “Molecular and Functional Characterization of Pheromone Binding Protein 2 from Cyrtotrachelus buqueti (Coleoptera: Curculionidae)” (International Journal of Molecular Sciences, 2023).
Entries after “also recorded” stand apart in the source; their conditions may differ.

How the values were obtained:
[1] = test system: virgin males of C. buqueti; set-up: method as in earlier work; settings: compared with mated males and virgin females; cited from earlier work
CbuqPBP1 = test system: CbuqPBP1; set-up: method as in doi:10.1111/phen.12209; settings: cited from earlier work
[2] = test system: antennae of male C. buqueti adults; test: EAG assays after RNAi of CbuqPBP2; assay type: in vivo, Cyrtotrachelus buqueti; settings: 72 h after dsRNA injection; chemical at 100 μg/μL in n-hexane
Protocol: To evaluate the function of CbuqPBP2 in C. buqueti olfaction, the dsRNA-injected, RNase-free water-injected, or non-injected male adults were subjected to EAG (Syntech, Hilversum, Netherlands) at 72 h after injection. Based on the results of the fluorescence competition binding assay, the chemicals (dibutyl phthalate, ethyl hexanoate, styrene and linalool) that bound with CbuqPBP2 were selected for electrophysiological experiments. The tested chemicals were diluted in n-hexane to prepare a solution at a concentration of 100 μg/μL, and n-hexane was used as a blank control.
The antenna for EAG detection was cut off and amputated at the base and tip. The basal and distal ends of the excised antenna were linked to a reference electrode and recording electrode by one teardrop of Spectra R360 electrically conductive gel, respectively. A filter paper strip (2 cm × 0.5 cm) loaded with ten microliters of each chemical solution was inserted into the sample tube (10 cm in length) as a stimuli source. An air-stimulus controller (CS-05 model) was used to deliver the stimulus. The stimulation time was 0.5 s, and the interval for antennal recovery was 30 s. The response of the antenna to each chemical was detected using a high-impedance amplifier (IDAC2) and analyzed using the EAG software (version 2.0) supplied with the instrument. The chemicals were tested randomly for each antenna. The antenna was stimulated one time with n-hexane before and after each chemical stimulation. Three to six antennae were measured for each chemical in independent experiments, and each antenna was tested three times. EAG responses were recorded in mV, and the relative EAG response of each chemical was calculated by using the following formula: Relative EAG response=EAGA/EAGCK1+EAGCK2/2 where EAG(A) represents the EAG response to the chemical; EAGCK1 and EAKCK2 represent EAG responses to n-hexane before and after each chemical stimulation, respectively.

CbuqPBP2 = CbuqPBP2 (Cyrtotrachelus buqueti, UniProt A0A1L3KPR5); test: Fluorescence competitive binding assay with 1-NPN probe; settings: increasing ligand concentration, Figure 4C,D
Protocol: The fluorescent probe 1-NPN and the tested chemicals with a purity of at least more than 96% were purchased from Aladdin Biochemical Technology Co., LTD. (Shanghai, China). The fluorescence binding assay was carried out on a Lumina fluorescence spectrophotometer (Thermo Fisher Scientific, MA, USA) using a 1 cm light path quartz cuvette at 25 °C. All the slit widths for both excitation and emission were 5 nm. The 1-NPN and all the compounds tested were dissolved in chromatography-grade methanol to a final concentration of 1 mM. The CbuqPBP2 protein was dissolved in 50 mM Tris–HCl buffer at pH 7.4 to a final concentration of 2 μM. […] The scanning range was 350–550 nm at each concentration, and the maximum fluorescence intensities were plotted against the free ligand concentration.

Sequence of CbuqPBP2 (A0A1L3KPR5 entry or part of it): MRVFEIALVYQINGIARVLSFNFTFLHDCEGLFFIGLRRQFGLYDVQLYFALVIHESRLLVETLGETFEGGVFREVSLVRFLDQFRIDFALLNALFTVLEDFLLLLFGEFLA

Structure (SMILES)	attraction effect [1]	binding affinity of CbuqPBP1 (CbuqPBP1)	EAG response of dsCbuqPBP2-treated male adults versus water-injected and non-injected controls [2]	fluorescence intensity in competitive binding curve (CbuqPBP2)
CCCCOC(=O)c1ccccc1C(=O)OCCCC [Dibutyl phthalate]	more significant attraction effect	strongest binding affinity	significantly reduced	
CCCCCC(=O)OCC [Ethyl hexanoate]			did not significantly decrease	
c1ccc2[nH]ccc2c1 [Indole]				the fluorescence intensity enhanced as the ligand concentration increased
C=CC(C)(O)CCC=C(C)C (stereo not drawn) [Linalool]			not significantly reduced; also recorded: did not influence the EAG response	
CC(C)=CCC/C(C)=C/CC/C(C)=C/CC/C=C(\C)CC/C=C(\C)CCC=C(C)C [Squalene]				the fluorescence intensity enhanced as the ligand concentration increased
C=Cc1ccccc1 [Styrene]		lower binding affinity	significantly reduced	
